# Reference: paper doi:10.1101/2022.07.20.500776v2 (biorxiv, 2022)
# Experiments:
# Type in all cases: biochemical
# [1] = molecular target: T1, Vibrio alkaline phosphatase (VAP) (Vibrio sp. G15-21, UniProt Q93P54); assay: steady-state pNPP hydrolysis at […] nm, […] HEPES
# T1 sequence (Q93P54 20-521): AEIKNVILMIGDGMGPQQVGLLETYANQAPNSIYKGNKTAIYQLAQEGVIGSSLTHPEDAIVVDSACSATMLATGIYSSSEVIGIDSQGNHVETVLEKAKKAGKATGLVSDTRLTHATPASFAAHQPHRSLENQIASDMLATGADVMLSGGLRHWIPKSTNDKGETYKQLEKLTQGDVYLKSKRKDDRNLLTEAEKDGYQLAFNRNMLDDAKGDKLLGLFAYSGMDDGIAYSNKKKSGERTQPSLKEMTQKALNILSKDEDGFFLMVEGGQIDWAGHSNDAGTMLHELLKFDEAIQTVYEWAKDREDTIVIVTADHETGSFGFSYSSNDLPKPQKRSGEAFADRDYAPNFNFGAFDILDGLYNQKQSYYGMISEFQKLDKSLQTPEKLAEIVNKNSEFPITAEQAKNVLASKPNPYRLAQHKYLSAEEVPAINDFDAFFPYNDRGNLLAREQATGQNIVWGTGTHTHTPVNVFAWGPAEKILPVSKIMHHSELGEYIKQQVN
# [2] = molecular target: T2, Vibrio alkaline phosphatase (VAP) (Vibrio sp. G15-21, UniProt Q93P54, K441L/Y442F); assay: steady-state pNPP hydrolysis at […] nm, Michaelis-Menten fit; details: pH 8.0, 100 mM Tris-HCl, 1 mM MgCl2, 10 °C, no added NaCl
# T2 sequence (Q93P54 20-521 K441L/Y442F): T1 sequence (Q93P54 20-521)
# [3] = molecular target: T3, Vibrio alkaline phosphatase (VAP) (Vibrio sp. G15-21, UniProt Q93P54, Y241P); assay: as above; details: pH 8.0, 100 mM Tris-HCl, 1 mM MgCl2, 10 °C, no added NaCl
# T3 sequence (Q93P54 20-521 Y241P): T1 sequence (Q93P54 20-521)
# [4] = molecular target: T4, Vibrio alkaline phosphatase (VAP) (Vibrio sp. G15-21, UniProt Q93P54, A240D); assay: as above; details: pH 8.0, 100 mM Tris-HCl, 1 mM MgCl2, 10 °C, no added NaCl
# T4 sequence (Q93P54 20-521 A240D): T1 sequence (Q93P54 20-521)
# [5] = molecular target: T5, Vibrio alkaline phosphatase (VAP) (Vibrio sp. G15-21, UniProt Q93P54, K441E); assay: as above; details: pH 8.0, 100 mM Tris-HCl, 1 mM MgCl2, 10 °C, no added NaCl
# T5 sequence (Q93P54 20-521 K441E): T1 sequence (Q93P54 20-521)
# [6] = molecular target: T6, Vibrio alkaline phosphatase (VAP) (Vibrio sp. G15-21, UniProt Q93P54, K441L); assay: as above; details: pH 8.0, 100 mM Tris-HCl, 1 mM MgCl2, 10 °C, no added NaCl
# T6 sequence (Q93P54 20-521 K441L): T1 sequence (Q93P54 20-521)
Ki [1],Structure (SMILES),Km [2],Km [3],Km [4],Km [5],Km [6]
21.3 mM,O=S(=O)(O)CCN1CCN(CCO)CC1 [HEPES],–,–,–,–,–
–,O=[N+]([O-])c1ccc(OP(=O)(O)O)cc1 [pNPP],8.8 ± 2.4 µM,4.9 ± 3.4 µM,12.8 ± 3.8 µM,7 ± 1.6 µM,6.6 ± 3.1 µM
